Results published in patent EP0479121A1, “Skin treatment compositions containing beta-phosphatidyl choline derivatives” (FIDIA S.p.A., priority 1990, dated 1992).

Legend:
[1] = Emulsion stability under centrifuging at 6000 r.p.m. (Test 2); assay type: physicochemical; conditions: 250 mg in 10 g water added to 90 g standard emulsion, phase separation noted
Description: To evaluate the influence of β-phosphatidyl choline derivatives on emulsion stability, a standard emulsion was prepared having the following composition (Table 2):
The aqueous phase heated to 70°C is slowly added to the oil phase heated to 75°C. Rapid agitation is effected by a Silverson laboratory mixer equipped with an emulsifying head and is continued for about 30 minutes, slowly cooling the formed emulsion to ambient temperature.
250 mg of each of the considered β-lecithins dispersed or dissolved in 10 g of water are added under slow agitation to 90 g of the standard emulsion obtained.
The resultant emulsions are tested for stability by subjecting them to centrifuging at 6000 r.p.m. for 10, 30 and 60 minutes respectively, and by storing them under temperature control at 45°C for 72 hours. In both cases the stability is evaluated by noting any phase separation.

stratum corneum = experiment: In vivo hydration tests on human volunteers, Corneometer (Test 3); conditions: 50 mg cream on volar forearm (20 cm²), average of 10 subjects, lower numbers = higher hydration, before application 241±21; for Measured hydration values, 30': 30 min after application; for Measured hydration values, 150': 150 min after application; for Measured hydration values, 270': 270 min after application
Description: The hydration tests were conducted using a Corneometer laboratory instrument equipped with a capacitive probe able to measure the moisture present on the stratum corneum. To conduct the test, 50 mg of standard cream and cream containing the various synthetic β-lecithins prepared as Examples 1 and 2 are applied to the volar surface of the forearm (20 cm² ) with light circular massage.
The hydration measurements were taken before applying the product and 30 min, 150 min and 270 min after its application. The hydration values are expressed in arbitrary units deriving from electrical impedance measurements on the cutaneous surface. Although the values are relative they are in inverse linear relationship to the absolute water quantity present in the cutaneous layer of the skin (lower numbers correspond to higher hydration).

Stability under centrifuging at 6000 r.p.m., 10 min ([1]; 10 min)	Stability under centrifuging at 6000 r.p.m., 30 min ([1]; 30 min)	Stability under centrifuging at 6000 r.p.m., 60 min ([1]; 60 min)	Compound	Measured hydration values, 30' (stratum corneum)	Measured hydration values, 150' (stratum corneum)	Measured hydration values, 270' (stratum corneum)
Stable	Stable	Stable	CCCCCCCCCCCCCCCC(=O)OCC(COC(=O)CCCCCCCCCCCCCCC)OP(=O)([O-])OCC[N+](C)(C)C [PCS1, 1,3-dipalmitoylglycero-2-phosphoryl choline]	165±10 arbitrary units	195±15 arbitrary units	213±15 arbitrary units
			CCCCCCCCCCCCCC(=O)OCC(COC(=O)CCCCCCCCCCCCC)OP(=O)([O-])OCC[N+](C)(C)C [PCS2, 1,3-dimyristoylglycero-2-phosphoryl choline]	147±11 arbitrary units	175±10 arbitrary units	195±9 arbitrary units
			CC(C)(C)C(=O)OCC(COC(=O)C(C)(C)C)OP(=O)([O-])OCC[N+](C)(C)C [PCS3, 1,3-dipivaloylglycero-2-phosphoryl choline]	157±7 arbitrary units	193±13 arbitrary units	206±9 arbitrary units
			CCCCCCCCCCCCCCCCCC(=O)OCC(COC(=O)CCCCCCCCCCCCCCCCC)OP(=O)([O-])OCC[N+](C)(C)C [PCS4, 1,3-distearoylglycero-2-phosphoryl choline]	132±12 arbitrary units	161±11 arbitrary units	180±12 arbitrary units
			COc1cc(C(=O)OCC(COC(=O)c2cc(OC)c(OC)c(OC)c2)OP(=O)([O-])OCC[N+](C)(C)C)cc(OC)c1OC [PCS5, 1,3-di(3,4,5-trimethoxybenzoyl)glycero-2-phosphoryl choline]	124±14 arbitrary units	144±16 arbitrary units	177±15 arbitrary units
